Key:
Assay type in all cases: biochemical
[1] = biological target: T1, α-D-galactosidase (green coffee beans) (Coffea arabica, UniProt Q42656); assay: glycosidase assay with p-nitrophenyl substrates (Example 2); conditions: 10 μl of 5 mM iminosugar solution in 70 μl incubation mixture; 20° C.; read-out: Promotion of glycosidase activity: α-D-galactosidase (Green coffee bean)
T1 construct: purchased Sigma Aldrich Chemicals Limited
Protocol: (§1) The assays were conducted as described by Watson et al. 1997, Phytochemistry 46: 255-259 using p-nitrophenyl-substrates. Assays were carried out in microtitre plates. Enzymes were assayed in 0.1M citric acid/0.2M di-sodium hydrogen phosphate (Mcllvaine) buffers at the optimum pH for the enzyme. All assays were carried out at 20° C. All enzymes and substrates were purchased from Sigma Aldrich Chemicals Limited. The incubation mixture consisted of 10 μl of enzyme solution, 10 μl of the iminosugars solution (made up in deionised water at 5 mM) and 50 μl of the appropriate 5 mM p-nitrophenyl substrate made up in McIlvaine buffer at the optimum pH for the enzyme. The reactions were stopped with 0.4M glycine (pH 10.4) during the exponential phase of the reaction, which was determined at the beginning of the assay using blanks with water, which were incubated for a range of time periods to measure the reaction rate using 5 mM substrate solution. Absorbances were read at 405 nm. Water was substituted for the inhibitors in the blanks.
(§2) The glycosidases used were α-D-glucosidase (yeast), α-D-glucosidase (Bacillus sterothermophilus), α-D-glucosidase (rice), amyloglucosidase (Aspergillus niger), β-D-glucosidase (almond), α-D-galactosidase (green coffee beans), β-D-galactosidase (bovine liver), α-L-fucosidase (bovine kidney), α-D-mannosidase (Jack bean), β-D-mannosidase (Cellullomonas fimi), Naringinase (Penicillium decumbens), N-acetyl-β-D-glucosaminidase (Bovine kidney), N-acetyl-β-D-glucosaminidase (Aspergillus oryzae) and N-acetyl-β-D-glucosaminidase (Jack bean)

[2] = tested on: α-D-glucosidase (Bacillus sterothermophilus); assay: as above; conditions: 10 μl of 5 mM iminosugar solution in 70 μl incubation mixture; 20° C.
Protocol: as §1, §2

[3] = biological target: T2, wild type (wt) alpha-galactosidase (Homo sapiens, UniProt P06280); assay: alpha-galactosidase activity assay in HL60 lysate (4MU-α-D-gal); conditions: at a concentration of 100 uM, 0.5 mM 4MU-α-D-gal, pH 4.5
T2 construct: The lysates were used as a source for wild type (wt) alpha-galactosidase; endogenous in cells; host or cells: HL60 (ECACC No. 98070106) lysate
T2 sequence (P06280 32-429): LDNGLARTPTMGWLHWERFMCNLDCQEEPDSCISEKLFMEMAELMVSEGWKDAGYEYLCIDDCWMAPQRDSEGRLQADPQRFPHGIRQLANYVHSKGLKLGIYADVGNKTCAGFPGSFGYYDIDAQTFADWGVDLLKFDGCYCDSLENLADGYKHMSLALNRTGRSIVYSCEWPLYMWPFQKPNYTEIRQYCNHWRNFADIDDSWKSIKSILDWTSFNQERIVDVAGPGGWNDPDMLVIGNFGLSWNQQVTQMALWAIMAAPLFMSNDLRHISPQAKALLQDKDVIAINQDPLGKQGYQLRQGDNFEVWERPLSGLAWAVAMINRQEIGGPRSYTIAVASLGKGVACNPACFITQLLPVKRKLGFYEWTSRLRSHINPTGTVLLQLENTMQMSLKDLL

[4] = biological target: T3, wild type (wt) beta-glucocerebrosidase (Homo sapiens, UniProt P04062); assay: beta-glucocerebrosidase activity assay in HL60 lysate (4MU-β-D-glc); conditions: at a concentration of 100 μM, 0.5 mM 4MU-β-D-glc;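 note: fluorometric read-out of 4MU liberated from the substrate (ex 360 nm, em 450 nm) after 37 °C incubation, reaction stopped with sodium carbonate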
T3 construct: The lysates were used as a source for wild type (wt) beta-glucocerebrosidase; endogenous in cells; host or cells: HL60 (ECACC No. 98070106) lysate
T3 sequence (P04062 40-536): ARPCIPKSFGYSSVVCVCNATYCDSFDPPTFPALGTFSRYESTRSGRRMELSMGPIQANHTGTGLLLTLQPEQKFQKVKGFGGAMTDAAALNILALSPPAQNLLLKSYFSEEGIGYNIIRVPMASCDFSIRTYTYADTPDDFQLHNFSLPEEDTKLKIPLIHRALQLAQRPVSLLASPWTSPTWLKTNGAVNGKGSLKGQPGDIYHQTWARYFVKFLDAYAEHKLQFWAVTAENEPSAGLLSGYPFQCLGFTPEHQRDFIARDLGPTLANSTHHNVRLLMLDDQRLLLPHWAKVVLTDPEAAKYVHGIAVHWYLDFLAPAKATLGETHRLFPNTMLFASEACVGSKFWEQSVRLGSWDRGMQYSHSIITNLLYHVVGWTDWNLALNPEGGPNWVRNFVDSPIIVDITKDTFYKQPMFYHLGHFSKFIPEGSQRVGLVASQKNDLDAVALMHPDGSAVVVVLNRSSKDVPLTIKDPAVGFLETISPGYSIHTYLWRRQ

[5] = biological target: T4, wild type (wt) lysosomal alpha-glucosidase (Homo sapiens, UniProt P10253); assay: alpha-glucosidase activity assay in HL60 lysate (4MU-α-D-glc); conditions: at a concentration of 100 uM, 0.5 mM 4MU-α-D-glc, pH 4.5;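 note: fluorometric rate of 4MU product release read at 360 nm excitation and 450 nm emission, reactions run at 37 °C in citric phosphate buffer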
T4 construct: The lysates were used as a source for wild type (wt) lysosomal alpha-glucosidase; endogenous in cells; host or cells: HL60 (ECACC No. 98070106) lysate

T1 sequence (Q42656 16-378): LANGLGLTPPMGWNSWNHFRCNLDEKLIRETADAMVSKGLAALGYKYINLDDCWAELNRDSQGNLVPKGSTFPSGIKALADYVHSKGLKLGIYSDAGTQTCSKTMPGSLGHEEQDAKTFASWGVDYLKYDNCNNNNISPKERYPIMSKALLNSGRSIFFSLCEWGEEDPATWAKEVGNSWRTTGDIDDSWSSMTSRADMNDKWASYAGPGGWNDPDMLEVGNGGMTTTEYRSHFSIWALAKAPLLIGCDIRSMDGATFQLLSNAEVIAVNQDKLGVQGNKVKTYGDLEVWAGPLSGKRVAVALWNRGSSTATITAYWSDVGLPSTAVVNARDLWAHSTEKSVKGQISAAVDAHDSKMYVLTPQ

SMILES | inhibition at 100 µM [3] [%] | Promotion of glycosidase activity: α-D-glucosidase (Bacillus sterothermophilus) [2] | other results
N[C@@H]1CN(Cc2ccccc2)[C@H](CO)[C@H]1O [Compound 370, (2R,3S,4R)-4-amino-1-benzyl-2-(hydroxymethyl)pyrrolidin-3-ol] |  | 81 % increase in absorbance compared to the water controls | activation at 714 µM [1]: 43%
N[C@H]1CN(Cc2ccccc2)[C@@H](CO)[C@@H]1O [Compound 312, (2S,3R,4S)-4-amino-1-benzyl-2-(hydroxymethyl)pyrrolidin-3-ol] |  | 52 % increase in absorbance compared to the water controls | activation at 714 µM [1]: 30%
CCCCCCCCCN1C[C@H](NC(C)=O)[C@@H](O)[C@@H]1CO [Compound 338, N-((3S,4R,5S)-4-hydroxy-5-(hydroxymethyl)-1-nonylpyrrolidin-3-yl)acetamide] |  | 170 % increase in absorbance compared to the water controls | activation at 714 µM [1]: 35%
CCCCN1C[C@@H](NC(C)=O)C[C@H]1CO [Compound 350, N-((3S,5S)-1-butyl-5-(hydroxymethyl)pyrrolidin-3-yl)acetamide] |  | 160 % increase in absorbance compared to the water controls | activation at 714 µM [1]: 38%
CC(=O)N[C@H]1C[C@@H](CO)N(CCO)C1 [Compound 347, N-((3S,5S)-1-(2-hydroxyethyl)-5-(hydroxymethyl)pyrrolidin-3-yl)acetamide] |  | 68 % increase in absorbance compared to the water controls | 
O[C@@H]1[C@@H](O)[C@H](O)[C@]2(O)CC[C@H]1N2 [Compound 21, (1R,2S,3R,4S,5R)-8-azabicyclo[3.2.1]octane-1,2,3,4-tetraol] | > 50 |  | inhibition at 100 µM [4]: > 50%
N[C@@H]1CN[C@H](CO)C1 [Compound 344, ((2S,4S)-4-aminopyrrolidin-2-yl)methanol] |  | 71 % increase in absorbance compared to the water controls | 
CCCCOC(=O)[C@@H]1[C@@H](O)[C@H](O)[C@@H](O)CN1CCCC [Compound 205, (2S,3R,4R,5S)-butyl 1-butyl-3,4,5-trihydroxypiperidine-2-carboxylate] |  | 60 % increase in absorbance compared to the water controls | 
CN1C[C@@H](O)[C@H](O)[C@@H](O)C1 [Compound 253, (3R,4r,5S)-1-methylpiperidine-3,4,5-triol] |  | 56 % increase in absorbance compared to the water controls | 
OCCN1[C@H](CO)[C@H](O)[C@H](O)[C@H]1CO [Compound 168, (2R,3R,4S,5R)-1-(2-hydroxyethyl)-2,5-bis(hydroxymethyl)pyrrolidine-3,4-diol] | > 50 |  | 
OCCCCCCCCCN1C[C@H](O)[C@@H](O)[C@H](O)[C@H]1CO [Compound 724, (2R,3R,4R,5S)-2-(hydroxymethyl)-1-(9-hydroxynonyl)piperidine-3,4,5-triol] |  |  | inhibition at 100 µM [5]: > 50%; inhibition at 100 µM [4]: > 50%
OC[C@H]1N[C@H](CO)[C@H](O)C(O)[C@H]1O (stereo partly drawn) [Compound 189, (2R,3S,5S,6R)-2,6-bis(hydroxymethyl)piperidine-3,4,5-triol] | > 50 |  | 

Now from value to compound, other results behind:

inhibition at 100 µM [3] [%] | SMILES | Promotion of glycosidase activity: α-D-glucosidase (Bacillus sterothermophilus) [2] | other results
> 50 | C=CCC[C@H]1N[C@@H](CO)[C@H](O)[C@@H](O)[C@@H]1O [Compound 380, (2R,3R,4S,5S,6S)-2-(but-3-enyl)-6-(hydroxymethyl)piperidine-3,4,5-triol] |  | 
> 50 | C[C@@H]1N[C@@H](CO)[C@H](O)[C@H](O)[C@H]1O [Compound 269, (2S,3S,4R,5S,6S)-2-(hydroxymethyl)-6-methylpiperidine-3,4,5-triol] |  | 
> 50 | C[C@H]1N[C@@H](CO)[C@H](O)[C@H](O)[C@H]1O [Compound 264, (2S,3S,4R,5S,6R)-2-(hydroxymethyl)-6-methylpiperidine-3,4,5-triol] |  | 
> 50 | OC[C@H]1NC[C@@H](O)[C@H](O)[C@H]1O [Compound 447, (2R,3S,4S,5R)-2-(hydroxymethyl)piperidine-3,4,5-triol] |  | 
> 50 | CNC(=O)[C@H]1N[C@H](CO)[C@@H](O)[C@H](O)[C@@H]1O [Compound 246, (2S,3R,4S,5R,6R)-3,4,5-trihydroxy-6-(hydroxymethyl)-N-methylpiperidine-2-carboxamide] |  | 
> 50 | C[C@H]1N[C@H](CO)[C@H](O)[C@H](O)[C@H]1O [Compound 263, (2R,3S,4R,5S,6R)-2-(hydroxymethyl)-6-methylpiperidine-3,4,5-triol] |  | 
> 50 | O=C1N[C@H](CO)[C@@H](O)[C@H](O)[C@@H]1O [Compound 112, (3S,4S,5R,6R)-3,4,5-trihydroxy-6-(hydroxymethyl)piperidin-2-one] |  | 
> 50 | C[C@H]1NC[C@H](O)[C@@H](O)[C@H]1O [Compound 258, (2R,3S,4R,5S)-2-methylpiperidine-3,4,5-triol] |  | 
> 50 | OC[C@H]1NC[C@H](O)[C@@H](O)[C@H]1O [Compound 215, (2R,3S,4R,5S)-2-(hydroxymethyl)piperidine-3,4,5-triol] |  | 
